Columns and labels:
[1] = test system: Human umbilical cord blood cells; Lin(−)CD34^+ cells isolated after treatment; experiment: Gene expression arrays after treatment of whole cord blood; assay type: cell-based
Description: Further experiments were performed to determine if CD34^+ cells responded to 16,16-dimethyl PGE2 when cells were treated in the context of a whole cord blood clinical treatment protocol. Human umbilical cord blood cells were incubated for 120 minutes at 37° C. with vehicle or 10 μM 16,16-dimethyl PGE2 (See FIGS. 17A-17D). After the incubation, Lin(−) CD34^+ cells were isolated using Miltenyi magnetic sorting. Biotin-labeled aRNA was prepared from the cells, and gene expression profiles were analyzed. […]
These experiments were repeated using human whole cord blood cells to determine if the CD34^+ expression results can be translated to the clinical setting. […] After the incubation, Lin(−)CD34^+ cells were isolated, labeled aRNA was prepared from the cells, and gene expression profiles were analyzed. […]
After treatment, the cells were washed with LMD/5% HSA medium, centrifuged for 10 minutes at 650× g at room temperature and resuspended in a cold selection buffer (phosphate buffered saline (PBS) with no Ca^+ or Mg^+; 2 mM EDTA; and 0.5% HSA). […] Once the Lin-CD34^+ cells were isolated from the treated whole cord blood, an aliquot was analyzed by flow cytometry to assess purity. […]

[2] = test system: CXCR4 cell-surface protein on CD34^+ cord blood cells; experiment: CXCR4 surface expression analysis by flow cytometry; assay type: cell-based, human; details: 10 μM; for CD34+ cord blood cells with detectable CXCR4 expression: 2 hours at 37° C.
Description: CD34^+ cord blood cells were treated with 10 μM 16,16-dimethyl PGE2 or DMSO in StemSpan media for 2 hours at 37° C. or for 1 hour at 4° C. After treatment, the cells were washed in StemSpan media, centrifuged for 10 minutes at 300× g and resuspended in StemSpan media containing cytokines (e.g., CC100) to promote CD34^+ cell survival and incubated at 37° C. for 1, 6 and 24 hours. After the 1, 6 or 24 hour incubation, cells were centrifuged and resuspended in staining media containing the Lineage cocktail, 1-FITC, […], CXCR4(CD184)-PE, and incubated on ice for 15 minutes. Fresh staining media was then added to the cells, and the cells were centrifuged at 300 g for 10 minutes, twice. The stained cells were acquired on a Guava EasyCyte 8HT and analysis was performed using FloJo Software Package (Treestar).
CXCR4 cell-surface expression is important for stem cell homing to the bone marrow hematopoietic niche. […] Cells were treated for 2 hours at 37 or for 1 hour at 4° C. with either 10 μM 16,16-dimethyl PGE2 or DMSO control in StemSpan media. CXCR4 cell-surface protein expression was assessed 1, 6 and 24 hours after the end of treatment by flow cytometry.

CCCCC(C)(C)[C@H](O)/C=C/[C@H]1[C@H](O)CC(=O)[C@@H]1C/C=C\CCCC(=O)O [16,16-dimethyl PGE2]
response of whole cord blood (more than 99% Lineage+ cells) ([1]; 10 μM, 37° C., 2 hours, FIGS. 17A-17D): did not respond to 16,16-dimethyl PGE2 in a similar manner
concentration giving the maximal gene expression signature ([1]; whole cord blood treated 120 minutes at 37° C., Lin(−)CD34+ cells isolated): 10 µM
CXCR4 expression after treatment at 4° C. ([2]; 4° C.): did not result in an increase in CXCR4 expression
CD34+ cord blood cells with detectable CXCR4 expression ([2]; 1 hour after treatment): 48%
CD34+ cord blood cells with detectable CXCR4 expression ([2]; 6 hours post-treatment): 34.7%
level of CXCR4 compared to DMSO treated cells ([2]; 24 hours post-treatment): substantially the same

From patent US20200339953A1, “HEMATOPOIETIC STEM AND PROGENITOR CELL THERAPY” (priority 2010, published 2020)
